Experimental findings from ChEMBL document CHEMBL3992523, “Potent Inhibition of Nitric Oxide-Releasing Bifendate Derivatives against Drug-Resistant K562/A02 Cells in Vitro and in Vivo” (J Med Chem, 2017) are described below.

Series [1] concerns K562. Description: Anti-proliferative activity against human K562 cells measured after 72 hrs by MTS assay. The conditions noted are these: K562, 72 h. Type of series: functional, cell-based.
Series [2] has as its system K562/A02. Description: Anti-proliferative activity against P-gp overexpressing/drug resistant human K562/A02 cells measured after 72 hrs by MTS assay. Type of series: functional, cell-based. The conditions noted are these: K562/A02, 72 h. A general note: Formazan colour is commonly taken as a measure of viable cells.
Series [3] in a line: Resistant factor, ratio of IC50 for P-gp overexpressing/drug resistant human K562/A02 cells to IC50 for human K562 cells. Type of series: functional.
Series [4] in a line: Permeability in human Caco2 cells assessed as concentration ratio of basolateral to apical side at 100 uM measured at 5 mins post dose by HPLC analysis. Type of series: ADME, cell-based. The following applies: caco-2, 5 min.
The nature of series [5]: Permeability in human Caco2 cells assessed as concentration ratio of basolateral to apical side at 100 uM measured at 10 mins post dose by HPLC analysis. The conditions noted are these: caco-2, 10 min. Type of series: ADME, cell-based. (In general: Passage across Caco-2 layers is used to estimate intestinal permeability.)
Series [6] can be described thus: Drug metabolism in P-gp overexpressing/drug resistant human K562/A02 cells assessed as nitric oxide production at 100 uM measured at 240 mins by Griess assay. Type of series: ADME, cell-based. The following applies: k562/a02, 4 h. A general note: Griess reagent forms a coloured azo dye with nitrite.
The nature of series [7]: Drug metabolism in P-gp overexpressing/drug resistant human K562/A02 cells assessed as nitric oxide production at 100 uM in presence of hemoglobin measured over 30 to 300 mins by Griess assay. The conditions noted are these: k562/a02, 100 µM. Type of series: ADME, cell-based.
Series [8] relates to K562/A02. Description: Anti-proliferative activity against P-gp overexpressing/drug resistant human K562/A02 cells assessed as decrease in cell survival at 1 uM in presence of hemoglobin measured after 24 hrs by MTS assay. Type of series: functional, cell-based.
Series [9] can be described thus: Drug metabolism in P-gp overexpressing/drug resistant human K562/A02 cells assessed as nitric oxide production at 20 uM by DAF-FMDA staining based fluorescent microscopic analysis. Type of series: ADME, cell-based. The conditions noted are these: k562/a02, 20 µM, TDE = time-dependent effect.
Series [10] is described as follows: Drug metabolism in P-gp overexpressing/drug resistant human K562/A02 cells assessed as nitric oxide production at 20 uM up to 6 hrs by Griess assay. Type of series: ADME, cell-based. The conditions noted are these: k562/a02, 6 h.
For series [11], the system named is Mus musculus. Kind of series: Toxicity in BALB/c nude mouse assessed as abnormality in eating at 1000 mg/kg, iv measured up to 14 days. Type of series: organism-based. The following applies: in vivo, 336 h.
Series [12] concerns Mus musculus. Kind of series: Toxicity in BALB/c nude mouse assessed as abnormality in drinking at 1000 mg/kg, iv measured up to 14 days. Type of series: organism-based. The conditions noted are these: in vivo, 336 h.
In series [13] the test system is Mus musculus. Description: Toxicity in BALB/c nude mouse assessed as change in body weight at 1000 mg/kg, iv measured up to 14 days. The following applies: in vivo, 336 h. Type of series: organism-based.
Series [14] concerns K562/A02. Description: Antitumor activity against P-gp overexpressing/drug resistant human K562/A02 cells xenografted in BALB/c nude mouse assessed as reduction in tumor volume at 120 mg/kg, iv administered every other day for 21 days measured every other day during dosing. Type of series: functional, organism-based.
Series [15] deals with K562/A02. Kind of series: Antitumor activity against P-gp overexpressing/drug resistant human K562/A02 cells xenografted in BALB/c nude mouse assessed as reduction in tumor weight at 120 mg/kg, iv administered every other day for 21 days measured post last dose. Type of series: functional, organism-based.
The test system of series [16] is K562/A02. Description: Antitumor activity against P-gp overexpressing/drug resistant human K562/A02 cells xenografted in BALB/c nude mouse assessed as tumor growth inhibition at 120 mg/kg, iv administered every other day for 21 days measured post last dose relative to control. Type of series: functional. The conditions noted are these: 504 h, read-out: TGI.
Series [17] concerns K562/A02. Kind of series: Effect on P-gp expression in P-gp overexpressing/drug resistant human K562/A02 cells up to 8 uM by Western blot analysis. Type of series: functional, cell-based.
Series [18] relates to K562/A02. Kind of series: Effect on P-gp expression in P-gp overexpressing/drug resistant human K562/A02 cells up to 8 uM by RT-PCR method. Type of series: functional, cell-based.
The species named for series [19] is Homo sapiens. Description: Inhibition of P-gp in human K562/A02 cells assessed as increase in intracellular rhodamine123 accumulation at 0.33 to 10 uM measured after 1 hr by flow cytometry. Type of series: cell-based.
Series [20] relates to K562. Description: Effect on rhodamine123 accumulation in human K562 cells at 0.33 to 10 uM measured after 1 hr by flow cytometry. Type of series: functional, cell-based.
Series [21] is filed under the species Homo sapiens. Description: Effect on P-gp ATPase activity in human K562/A02 cell membranes assessed as remaining ATP level by measuring relative light units at 40 uM in presence of MgATP measured after 40 mins by luminescence based P-gp-Glo assay (reference value: 216508 +/- 7426 RLU).
For series [22], the species on record is Homo sapiens. Kind of series: Inhibition of NF-kappaB phosphorylation in human K562/A02 cells at 2 uM in presence of hemoglobin measured after 24 hrs by Western blot analysis. Type of series: cell-based.
Series [23] deals with K562/A02. Description: Induction of nitration of mitochondrial cytochrome c in P-gp overexpressing/drug resistant human K562/A02 cells at 10 uM measured after 24 hrs by Western blot analysis. Type of series: functional, cell-based.
Series [24] relates to K562/A02. Kind of series: Induction of nitration of mitochondrial cytochrome c in P-gp overexpressing/drug resistant human K562/A02 cells at 10 uM in presence of hemoglobin measured after 24 hrs by Western blot analysis. Type of series: functional, cell-based.
In series [25] the test system is Mus musculus. Kind of series: Induction of nitration of mitochondrial cytochrome c in tumor of iv dosed BALB/c nude mouse xenografted with P-gp overexpressing/drug resistant human K562/A02 cells administered every other day for 21 days by Western blot analysis. Type of series: functional, organism-based.
For series [26], the species on record is Homo sapiens. Description: Induction of nitration of P-gp in P-gp overexpressing/drug resistant human K562/A02 cells at 10 uM measured after 24 hrs by Western blot analysis.
The species entered for series [27] is Homo sapiens. Kind of series: Induction of nitration of P-gp in P-gp overexpressing/drug resistant human K562/A02 cells at 10 uM in presence of hemoglobin measured after 24 hrs by Western blot analysis.
Series [28] has as its system K562/A02. Description: Down regulation of HIF-alpha expression in P-gp overexpressing/drug resistant human K562/A02 cells at 8 uM after 24 hrs by Western blot analysis. Type of series: functional, cell-based.
For series [29], the species on record is Homo sapiens. Description: Inhibition of NF-kappaB phosphorylation in P-gp overexpressing/drug resistant human K562/A02 cells at 8 uM after 24 hrs by Western blot analysis.
The target of series [30] is RAC-alpha serine/threonine-protein kinase (Homo sapiens) (UniProt P31749). Description: Inhibition of AKT phosphorylation in P-gp overexpressing/drug resistant human K562/A02 cells at 8 uM after 24 hrs by Western blot analysis.
The species named for series [31] is Homo sapiens. Description: Inhibition of ERK phosphorylation in P-gp overexpressing/drug resistant human K562/A02 cells at 8 uM after 24 hrs by Western blot analysis.
Series [32] has as its system K562/A02. Kind of series: Down regulation of HIF-alpha expression in P-gp overexpressing/drug resistant human K562/A02 cells at 1 uM measured after 48 hrs by Western blot analysis. Type of series: functional, cell-based.
For series [33], the species on record is Homo sapiens. Kind of series: Inhibition of NF-kappaB phosphorylation in human K562/A02 cells at 1 uM measured after 48 hrs by Western blot analysis. Type of series: cell-based.
The target of series [34] is RAC-alpha serine/threonine-protein kinase (Homo sapiens) (UniProt P31749). Kind of series: Inhibition of AKT phosphorylation in human K562/A02 cells at 1 uM measured after 48 hrs by Western blot analysis. Type of series: cell-based.
The species named for series [35] is Homo sapiens. Kind of series: Inhibition of ERK phosphorylation in human K562/A02 cells at 1 uM measured after 48 hrs by Western blot analysis. Type of series: cell-based.
In series [36] the test system is K562/A02. Kind of series: Down regulation of HIF-alpha expression in human K562/A02 cells at 2 uM in presence of hemoglobin measured after 24 hrs by Western blot analysis. Type of series: functional, cell-based.
Series [37] has as its target RAC-alpha serine/threonine-protein kinase (Homo sapiens) (UniProt P31749). Description: Inhibition of AKT phosphorylation in human K562/A02 cells at 2 uM in presence of hemoglobin measured after 24 hrs by Western blot analysis. Type of series: cell-based.
The species named for series [38] is Homo sapiens. Kind of series: Inhibition of ERK phosphorylation in human K562/A02 cells at 2 uM in presence of hemoglobin measured after 24 hrs by Western blot analysis. Type of series: cell-based.
The subject of series [39] is Mus musculus. Kind of series: Toxicity in BALB/c nude mouse assessed as effect on survival at 1000 mg/kg, iv measured up to 14 days. The following applies: in vivo, 336 h. Type of series: organism-based.
Series [40] relates to Mus musculus. Description: Toxicity in P-gp overexpressing/drug resistant human K562/A02 cells xenografted BALB/c nude mouse assessed as change in body weight at 120 mg/kg, iv administered every other day for 21 days measured on day 2,4,6,8,10,12,14,16,18,20,22 of dosing. Type of series: organism-based. The following applies: in vivo, 504 h.

Calls of active or inactive are those of the source. The calls are words filed in the database; no cut-off is given here.

Sequence of RAC-alpha serine/threonine-protein kinase (Homo sapiens) (P31749 whole entry): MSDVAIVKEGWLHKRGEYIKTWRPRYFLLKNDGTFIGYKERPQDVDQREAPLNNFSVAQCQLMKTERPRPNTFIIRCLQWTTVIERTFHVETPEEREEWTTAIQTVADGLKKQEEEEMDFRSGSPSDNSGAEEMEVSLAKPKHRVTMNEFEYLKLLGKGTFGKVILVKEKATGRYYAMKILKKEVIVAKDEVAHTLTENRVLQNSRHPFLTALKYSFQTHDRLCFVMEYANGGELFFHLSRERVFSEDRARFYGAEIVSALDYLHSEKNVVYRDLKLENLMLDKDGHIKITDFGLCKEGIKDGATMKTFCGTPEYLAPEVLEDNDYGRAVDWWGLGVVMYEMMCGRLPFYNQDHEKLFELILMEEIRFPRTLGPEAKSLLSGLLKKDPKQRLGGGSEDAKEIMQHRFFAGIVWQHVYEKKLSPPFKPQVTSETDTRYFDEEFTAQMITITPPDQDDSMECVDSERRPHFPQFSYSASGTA

Regarding `COC(=O)c1cc(OC)c2c(c1-c1c(C(=O)OC3CCN(CC(=O)OCCCCOc4no[n+]([O-])c4S(=O)(=O)c4ccccc4)CC3)cc(OC)c3c1OCO3)OCO2`, the figures for the IC50 in the series on K562 [1] and in the series on K562/A02 [2] were 690 nM and 550 nM, respectively. Also, the “Ratio IC50” value in [3] amounted to 0.8. The Ratio amounted to 0.14 in [4] and 0.53 in series [5]. Moreover, the Drug metabolism result in series [6] is given as “Metabolite_Detected”; in series [7], “Metabolite_Notdetected”; in series [9], “Tde”; in series [10] it was “Metabolite_Detected”. Besides, the outcome with K562/A02 [8], in the series on K562/A02 [17], in the series with K562/A02 [18], in the series on K562 [20], in the series with K562/A02 [24] and in the series filed under Homo sapiens [27] was inactive. Also, in the series on K562/A02 [36], the outcome was inactive. Besides, the Activity entry in the series on Mus musculus [11] is “Non-Toxic”; with Mus musculus [12], “Non-Toxic”; in the series on Mus musculus [13], “Non-Toxic”; in the series filed under Homo sapiens [21], 241000 RLU; with Mus musculus [25], “Dose-dependent effect”; in the series with Mus musculus [39], “Non-Toxic”. Besides, in the series on Mus musculus [40], the Activity entry is “Non-Toxic”. Also, the result in the series on K562/A02 [14], in the series with K562/A02 [15], in the series on K562/A02 [23], in the series listed under Homo sapiens [26], in the series on K562/A02 [28] and in the series with K562/A02 [32] was Active. Further, in the series on K562/A02 [16], the inhibition in vivo at 120 mg/kg was 51.4%. Also, the inhibition entry (in the series listed under Homo sapiens [19]; in the series listed under Homo sapiens [29]; in [30]; in the series listed under Homo sapiens [31]; in the series filed under Homo sapiens [33]; in series [34]) was “Active” in each case. In addition, in the series filed under Homo sapiens [35], the inhibition result is “Active”. Further, the inhibition result (in the series listed under Homo sapiens [22]; in [37]; in the series filed under Homo sapiens [38]) was “inactive” throughout.
Take `O=C(CN1CCC(O)CC1)OCCCCOc1no[n+]([O-])c1S(=O)(=O)c1ccccc1`: the concentration for half-maximal inhibition (IC50) in the series on K562 [1] was determined as 2250 nM; in the series on K562/A02 [2] it was 4110 nM. Moreover, in series [3], the “Ratio IC50” value stood at 1.8. Moreover, the figures for the Ratio in series [4] and in series [5] were 0.02 and 0.03, respectively.
Consider `COC(=O)c1cc(OC)c2c(c1-c1c(C(=O)OC3CCN(CC(=O)OCCCCOc4nonc4S(=O)(=O)c4ccccc4)CC3)cc(OC)c3c1OCO3)OCO2`, for which the IC50 with K562 [1] stood at 68000 nM; in the series on K562/A02 [2] it was 73000 nM. For the same molecule, the “Ratio IC50” value in series [3] was determined as 1.1. Besides, the Drug metabolism result in series [6] is given as “Metabolite_Notdetected”.
On the same counts, the results for `COC(=O)c1cc(OC)c2c(c1-c1c(C(=O)OC3CCN(CC(=O)OCCOCCOc4no[n+]([O-])c4S(=O)(=O)c4ccccc4)CC3)cc(OC)c3c1OCO3)OCO2` are 640 nM, 890 nM, 1.4 and “Metabolite_Detected”.

For orientation: IC50 means the concentration that gives 50% inhibition.
